In PubChem BioAssay (NCI) one finds GI50 and TGI data, which are given here for seven compounds.

Holding throughout (assay): growth of human tumour cells (NCI), 48 h
Test [1] has as its system CCRF-CEM leukemia.
In test [2] the test system is MDA-MB-435.
For test [3], the system named is OVCAR-5 ovarian.
Test [4] relates to SNB-75 CNS.
The test system of test [5] is TK-10 renal.
Test [6] has as its system BT-549 breast.
Test [7] deals with HCC-2998 colon.
Test [8] concerns KM12 colon.
The test system of test [9] is SK-OV-3 ovarian.
Test [10] relates to SF-539 CNS.

Each structure is given as a SMILES string.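 Grown in 96-well plates, cells were treated for 48 hours with each compound at five concentrations. Insufficient inhibition: endpoint recorded as highest concentration tested. Abbreviation: GI50, concentration required for 50% inhibition of growth. TGI: total growth inhibition.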

Regarding `CCCCCCNC(=O)Oc1ccc(/C(=C(\C)c2ccccc2)c2ccc(OCCN(CC)CC)cc2)cc1`, the GI50 in [1] is 2.22 µM; in [2] it was 3.57 µM; in test [3], 6.71 µM; in test [4] it was 3.54 µM; in test [5], 6.74 µM; in test [6], 6.05 µM. The GI50 is 2.33 µM in [7], 2.84 µM in test [8], 8.33 µM in test [9] and 3.47 µM in test [10]. Further, the TGI in [1] is 11.6 µM; in test [2], 10.1 µM; in [3], 13.2 µM; in test [4] it was 10.5 µM; in [5], 13.5 µM; in [6] it was 12.5 µM. The TGI in [7] stood at 8.16 µM; in test [8], 10 µM; in [9], 15.2 µM; in [10] it was 9.79 µM.

For `Cc1ccc2c(c1)C(=O)c1c-2n(CCCN=[N+]=[N-])c(=O)c2cc([N+](=O)[O-])ccc12`, the GI50 is 31.7 µM in test [1]; > 100 µM in test [2]; > 100 µM in test [3]; 1.26 µM in test [4]; 99.8 µM in [5]; > 100 µM in [6]. The results for the GI50 in test [7], in test [8] and in test [10] were > 100 µM, 83 µM and > 100 µM, respectively. The TGI in test [1] is > 100 µM; in [2], > 100 µM; in test [3], > 100 µM; in [4], 58.6 µM; in test [5], > 100 µM; in [6], > 100 µM. Besides, the TGI in test [7], in test [8] and in test [10] was > 100 µM in each case.

As to `Cc1cc(S(=O)(=O)Nc2nc3cc(Cl)ccc3o2)c(SCc2ccccc2)cc1Cl`, the GI50 in [1] was 3.53 µM; in test [2] it was 21.5 µM; in test [3], 22.7 µM; in test [4], 26.1 µM; in test [5] it was 25.8 µM; in test [6] it was 19.3 µM. The figures for the GI50 in test [7], in [8] and in [10] were 18.9 µM, 18.9 µM and 17.8 µM, respectively. Moreover, the TGI in test [1] worked out at 16.2 µM; in test [2] it was 42 µM; in test [3] it was 43 µM; in test [4], 62.2 µM; in test [5] it was 55.1 µM; in test [6], 38.7 µM. Moreover, the TGI in [7] was 37.4 µM; in test [8] it was 45.5 µM; in [10], 34.3 µM.

Take `COc1ccc(NC(=O)/C=C(C)/C=C/C=C(C)\C=C\C2=C(C)CCCC2(C)C)cc1`: the GI50 in test [1] was 48 µM; in test [2], 48.2 µM; in test [3] it was > 100 µM; in [4], 2.15 µM; in test [5] it was > 100 µM; in [6], > 100 µM. Moreover, the GI50 is > 100 µM in test [7], 62.8 µM in test [8], > 100 µM in [9] and 48.8 µM in [10]. Besides, the TGI in test [1], in [2], in test [3], in [4], in test [5] and in [6] was > 100 µM each time. Besides, the TGI in [7], in test [8], in [9] and in test [10] was > 100 µM each time.

With `O=C(Nc1cc(-c2cccnc2)nc(NCCCN2CCOCC2)n1)c1cc(Br)cc(C(F)(F)F)c1`, the GI50 in [1] was 3.54 µM; in [2], 1.66 µM; in test [3] it was 6.33 µM; in test [4], 1.52 µM; in [5], 5.07 µM; in test [6], 3.27 µM. Moreover, the GI50 in test [7] was 1.77 µM; in [8], 3.62 µM; in test [9] it was 7.26 µM; in test [10] it was 1.67 µM. For the same compound, the TGI in test [1] was determined as 12.9 µM; in test [2] it was 3.15 µM; in [3], 23.5 µM; in test [4] it was 3.59 µM; in [5] it was 18.1 µM; in test [6], 15 µM. The TGI in [7] was found to be 3.49 µM; in test [8], 13.6 µM; in [9] it was 19.9 µM; in test [10], 3.47 µM.

As for `COc1cc(/C=N\O)nc(-c2ccccn2)c1`, the TGI is > 100 µM in test [1]; > 100 µM in [2]; > 100 µM in test [3]; > 51.6 µM in [4]; > 100 µM in test [5]; > 100 µM in test [6]. Further, the TGI is > 100 µM in test [7], > 100 µM in [8], > 100 µM in test [9] and > 32.8 µM in test [10].

For the compound `Cc1ncc([N+](=O)[O-])n1CCNC(=O)CCCCCn1ccnc1[N+](=O)[O-]`, the TGI in test [1], in [2], in test [3], in test [4], in [6] and in [7] was > 100 µM each time. In addition, the TGI in test [8], in test [9] and in [10] was > 100 µM throughout.
